Consider seven compounds from patent US10344026B2, “Compositions and methods of targeting mutant K-ras” (NANTBIO, INC., priority 2017, dated 2019).

Holding throughout (format): cell-based
In one experiment the target is T1, wild type K-Ras (Homo sapiens, UniProt P01116).
T1 construct: expressed in transfected cells; host or cells: 293H cells
In words: G-LISA Ras activation, 293H cells transfected with Ras wild-type, EGF stimulated. The note with it: compound 1 hour, then 100 ng/ml EGF 2 minutes. The method in brief: (§1)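 Active Ras was quantified by G-LISA in lysates of 293H cells made the day after transfection with wild-type, G12D or G12V Ras plasmid (5 μg). Compounds were applied at 3.125-25 μM for 1 h; only the wild-type cells got a 2-min 100 ng/ml EGF pulse before lysis.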

The next experiment deals with HCT116-G31D. In words: Viability assay (CellTiterBlue, 72 hr) HCT116. As to conditions: Homo sapiens, HCT-116, GI50, CellTiterBlue, HCT116 K-Ras G13D, read-out: 72 hr Cell Viability HCT116 (G13D). The method in brief: (§2)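 Cells were seeded at 1000 per well and allowed 18 hr at 37 °C in CO2 before compound addition (final DMSO 0.5%). After 72 hr exposure, CellTiterBlue was added for 3 hr and fluorescence read at Ex550/Em590. GI50 values were calculated against DMSO (100%) and 100 uM tamoxifen (0%) controls.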
(In general: Resazurin is reduced to fluorescent resorufin, in cell work by metabolically active cells.)

For a further experiment, the target named is T2, K-Ras G12D (Homo sapiens, UniProt P01116, G12D).
T2 construct: expressed in transfected cells; host or cells: 293H cells
In words: G-LISA Ras activation, 293H cells transfected with G12D mutant. The note with it: compound 1 hour. The method in brief:
as §1

Experiment [1] concerns U87-MG (K-Ras wild type cell line). In words: Viability assay (CellTiterBlue, 72 hr) U87-MG. The note with it: Homo sapiens, U-87 MG, GI50, CellTiterBlue, U87-MG K-Ras wild-type. In outline:
as §2

Experiment [2] concerns phospho-Akt in A375 (Wild-type). In words: In-Cell Western phospho-Akt, A375. As to conditions: Homo sapiens, A-375, 1 h; A375, one hour treatment; read-out: In-Cell Western A375 (Wild-type) Akt (P). The method in brief: (§3)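 Following an 18 hr settle at 37° C, seeded cells receive test compound for 1 hr before fixation and staining with phospho-Akt and phospho-ERK primary antibodies (overnight, 4° C) plus a goat anti-rabbit secondary. Plates are imaged and fluorescence quantitated to give EC50.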

The next experiment relates to Panc10.05-G12D. In words: Viability assay (CellTiterBlue, 72 hr) Panc10.05. As to conditions: Homo sapiens, Panc1005, GI50, CellTiterBlue, Panc10.05 K-Ras G12D, read-out: 72 hr Cell Viability Panc10.05 (G12D). The method in brief: as §2
In experiment [3] the test system is phospho-Akt in Panc10.05 (G12D). In words: In-Cell Western phospho-Akt, Panc10.05. The note with it: Homo sapiens, Panc1005, 1 h; Panc10.05, one hour treatment; read-out: In-Cell Western Panc10.05 (G12D) Akt (P). In outline: as §3
The subject of experiment [4] is phospho-Akt in HCC827 (Wild-type). In words: In-Cell Western phospho-Akt, HCC827. As to conditions: Homo sapiens, 1 h; HCC827, one hour treatment; read-out: In-Cell Western HCC827 (Wild-type) Akt (P). In outline:
as §3

In experiment [5] the test system is Ishikawa (K-Ras wild type cell line). In words: Viability assay (CellTiterBlue, 72 hr) Ishikawa. As to conditions: Homo sapiens, GI50, CellTiterBlue, Ishikawa K-Ras wild-type. The method in brief:
as §2

For experiment [6], the system named is phospho-ERK in A375 (Wild-type). In words: In-Cell Western phospho-ERK, A375. As to conditions: Homo sapiens, A-375, 1 h; A375, one hour treatment; read-out: In-Cell Western A375 (Wild-type) Erk (P). The method in brief: as §3
Experiment [7] concerns HCC827 (K-Ras wild type cell line). In words: Viability assay (CellTiterBlue, 72 hr) HCC827. The note with it: Homo sapiens, GI50, CellTiterBlue, HCC827 K-Ras wild-type. The method in brief:
as §2

Experiment [8] deals with phospho-ERK in Panc10.05 (G12D). In words: In-Cell Western phospho-ERK, Panc10.05. The note with it: Homo sapiens, Panc1005, 1 h; Panc10.05, one hour treatment; read-out: In-Cell Western Panc10.05 (G12D) Erk (P). The method in brief:
as §3

In a further experiment the test system is Panc1-G12D. In words: Viability assay (CellTiterBlue, 72 hr) Panc1. As to conditions: Homo sapiens, PANC-1, GI50, CellTiterBlue, Panc1 K-Ras G12D, read-out: 72 hr Cell Viability Panc1 (G12D). In outline:
as §2

Experiment [9] deals with A375 (K-Ras wild type cell line). In words: Viability assay (CellTiterBlue, 72 hr) A375. The note with it: Homo sapiens, A-375, GI50, CellTiterBlue. In outline:
as §2

The subject of experiment [10] is phospho-ERK in HCC827 (Wild-type). In words: In-Cell Western phospho-ERK, HCC827. As to conditions: Homo sapiens, 1 h; HCC827, one hour treatment; read-out: In-Cell Western HCC827 (Wild-type) Erk (P). In outline: as §3
The test system of experiment [11] is phospho-Akt in Panc1 (G12D). In words: In-Cell Western phospho-Akt, Panc1. The note with it: Homo sapiens, PANC-1, 1 h; Panc1, one hour treatment; read-out: In-Cell Western Panc1 (G12D) Akt (P). The method in brief:
as §3

The test system of experiment [12] is phospho-ERK in Panc1 (G12D). In words: In-Cell Western phospho-ERK, Panc1. The note with it: Homo sapiens, PANC-1, 1 h; Panc1, one hour treatment; read-out: In-Cell Western Panc1 (G12D) Erk (P). In outline:
as §3

T1 sequence (P01116 whole entry): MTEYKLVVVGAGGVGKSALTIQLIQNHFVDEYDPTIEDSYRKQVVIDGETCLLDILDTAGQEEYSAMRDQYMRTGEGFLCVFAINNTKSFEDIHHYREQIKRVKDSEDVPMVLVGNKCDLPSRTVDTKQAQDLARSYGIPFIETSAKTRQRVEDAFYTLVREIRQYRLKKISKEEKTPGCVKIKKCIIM
T2 sequence (P01116 whole entry G12D): as the sequence (P01116 whole entry) above, with G12D counted along it

In the case of `CCCn1nc(C)c(C(=O)Nc2nc(-c3ccc4c(c3)CCC(=O)N4)cs2)c1C` [Compound 55, 3,5-dimethyl-N-(4-(2-oxo-1,2,3,4-tetrahydroquinolin-6-yl)thiazol-2-yl)-1-propyl-1H-pyrazole-4-carboxamide], the IC50 against wild type K-Ras is 6.5 µM; with HCT116-G31D it was greater than 25 µM; on K-Ras G12D, 4 µM; in experiment [1], greater than 25 µM; in the experiment with Panc10.05-G12D, greater than 25 µM; in experiment [5], greater than 25 µM. The IC50 (in experiment [7]; in the experiment on Panc1-G12D; in experiment [9]) was greater than 25 µM in each case. Besides, the EC50 in [2] is greater than 25 µM; in experiment [3], greater than 25 µM; in experiment [4] it was greater than 25 µM; in experiment [6] it was greater than 25 µM; in experiment [8] it was 14 µM; in experiment [10], greater than 25 µM. In addition, the EC50 in experiment [11] and in experiment [12] was greater than 25 µM in each case.

Turning to `Cc1nn(C(C)C)cc1C(=O)Nc1nc(-c2ccc3c(c2)CCC(=O)N3Cc2cccnc2)cs1` [Compound 116, 1-isopropyl-3-methyl-N-(4-(2-oxo-1-(pyridin-3-ylmethyl)-1,2,3,4-tetrahydroquinolin-6-yl)thiazol-2-yl)-1-pyrazole-4-carboxamide], the IC50 against wild type K-Ras is 6.1 µM; in the experiment with HCT116-G31D, greater than 25 µM; on K-Ras G12D it was 2.5 µM; in experiment [1], greater than 25 µM; in the experiment with Panc10.05-G12D, 1.2 µM; in [5] it was 21 µM. In addition, the IC50 was determined as 4 µM in experiment [7], 3 µM in the experiment with Panc1-G12D and 12 µM in experiment [9]. Further, the EC50 in experiment [2] was greater than 25 µM; in [3], 2 µM; in [4] it was greater than 25 µM; in [6] it was 12 µM; in [8], 0.745 µM; in experiment [10], 3 µM. In addition, the EC50 is 22 µM in [11] and 3 µM in [12].

Consider `Cc1nn(C(C)C)c(C)c1C(=O)Nc1nc(-c2ccc3c(c2)CCC(=O)N3)cs1` [Compound 52, 1-isopropyl-3,5-dimethyl-N-(4-(2-oxo-1,2,3,4-tetrahydroquinolin-6-yl)thiazol-2-yl)-1H-pyrazole-4-carboxamide], for which the IC50 at wild type K-Ras came to 13.9 µM; in the experiment on HCT116-G31D, 10 µM; against K-Ras G12D, 5.2 µM; in experiment [1] it was 14 µM; in the experiment with Panc10.05-G12D, 15 µM; in experiment [5], 13 µM. Further, the IC50 in experiment [7] came out at 10 µM; in the experiment with Panc1-G12D, 16 µM; in experiment [9], 5 µM. Also, the EC50 was 24 µM in [2]; 18 µM in experiment [3]; greater than 25 µM in experiment [4]; 14 µM in [6]; 4 µM in experiment [8]; 20 µM in [10]. In addition, the EC50 in experiment [11] is greater than 25 µM; in [12], 8 µM.

As to `CCn1cc(C(=O)Nc2nc(-c3ccc4c(c3)CCC(=O)N4Cc3cccnc3)cs2)c(C)n1` [Compound 115, 1-ethyl-3-methyl-N-(4-(2-oxo-1-(pyridin-3-ylmethyl)-1,2,3,4-tetrahydroquinolin-6-yl)thiazol-2-yl)-1H-pyrazole-4-carboxamide], the IC50 against wild type K-Ras turned out to be 6.3 µM; in the experiment with HCT116-G31D, 10 µM; on K-Ras G12D, 3.4 µM; in experiment [1], 17 µM; in the experiment with Panc10.05-G12D, 4 µM; in experiment [5], 9 µM. The IC50 in experiment [7] turned out to be 11 µM; with Panc1-G12D it was 9 µM; in experiment [9], 6 µM. The EC50 was greater than 25 µM in experiment [2]; 12 µM in experiment [3]; greater than 25 µM in experiment [4]; 9 µM in experiment [6]; 2 µM in experiment [8]; 6 µM in experiment [10]. Besides, the EC50 turned out to be 18 µM in experiment [11] and 2 µM in experiment [12].

With `CCn1nc(C)c(C(=O)Nc2nc(-c3ccc4c(c3)CCC(=O)N4CCOC)cs2)c1C` [Compound 119, 1-ethyl-N-(4-(1-(2-methoxyethyl)-2-oxo-1,2,3,4-tetrahydroquinolin-6-yl)thiazol-2-yl)-3,5-dimethyl-1H-pyrazole-4-carboxamide], the IC50 against wild type K-Ras stood at 5.4 µM; in the experiment on HCT116-G31D it was 16 µM; at K-Ras G12D it was 2.6 µM; in [1], 6 µM; in the experiment on Panc10.05-G12D, 0.71 µM; in experiment [5], 3 µM. In addition, the IC50 was found to be 2 µM in [7], 2 µM in the experiment on Panc1-G12D and 8 µM in [9]. Also, the EC50 in experiment [2] is 12 µM; in [3] it was 1.5 µM; in experiment [4], greater than 25 µM; in experiment [6], 8 µM; in experiment [8], 0.759 µM; in experiment [10] it was 1.1 µM. Further, the EC50 was 19 µM in [11] and 3 µM in [12].

With `CCc1nc(C)c(C(=O)Nc2nc(-c3ccc4c(c3)CCC(=O)N4CCOC)cs2)o1` [Compound 110, 2-ethyl-N-(4-(1-(2-methoxyethyl)-2-oxo-1,2,3,4-tetrahydroquinolin-6-yl)thiazol-2-yl)-4-methyloxazole-5-carboxamide], the IC50 against wild type K-Ras is 6.8 µM; with HCT116-G31D, greater than 25 µM; on K-Ras G12D, 3.9 µM; in [1] it was 17 µM; in the experiment on Panc10.05-G12D, 0.778 µM; in [5] it was 10 µM. In addition, the IC50 in [7] was 4 µM; with Panc1-G12D, 4 µM; in [9], greater than 25 µM. In addition, the EC50 in [2] was greater than 25 µM; in experiment [3], 3 µM; in experiment [4] it was greater than 25 µM; in [6] it was 23 µM; in experiment [8] it was 1.3 µM; in [10] it was 4 µM. The EC50 was found to be 23 µM in experiment [11] and 3 µM in experiment [12].

Regarding `Cc1nn(C(C)(C)C)c(C)c1C(=O)Nc1nc(-c2ccc3c(c2)CCC(=O)N3)cs1` [Compound 57, 1-(tert-butyl)-3,5-dimethyl-N-(4-(2-oxo-1,2,3,4-tetrahydroquinolin-6-yl)thiazol-2-yl)-1H-pyrazole-4-carboxamide], the IC50 on wild type K-Ras was 30 µM; with HCT116-G31D, greater than 25 µM; on K-Ras G12D, 9.4 µM; in experiment [1], greater than 25 µM; with Panc10.05-G12D it was 8 µM; in experiment [5], greater than 25 µM. The IC50 in [7] is greater than 25 µM; in the experiment with Panc1-G12D it was greater than 25 µM; in experiment [9], 27 µM. Besides, the EC50 was greater than 25 µM in experiment [2]; greater than 25 µM in experiment [3]; greater than 25 µM in [4]; greater than 25 µM in experiment [6]; 6 µM in experiment [8]; greater than 25 µM in experiment [10]. For the same compound, the EC50 in experiment [11] is greater than 25 µM; in experiment [12], 26 µM.
